Experimental data as given in US12370352B2, “Nasal and ophthalmic delivery of aqueous corticosteroid solutions” (CyDex Pharmaceuticals, Inc., priority 2007, dated 2025).

Key:
[1] = 72 h
[2] = pH and temperature stability of azelastine with and without CAPTISOL (Example 16); assay type: physicochemical; conditions: sixteen weeks, 25, 40, 60° C., pH 4, 5, 6
From the text: SAE-CD is also capable of stabilizing a second active agent included in the composition. Example 16 details a procedure for evaluating the stability of azelastine in the presence of SAE-CD at varying temperatures and in solutions of different pH's. The results are depicted in FIGS. 10A to 10C. The SAE-CD stabilized the azelastine for the period of sixteen weeks regardless of the temperature or pH of the solution. The lower the temperature, the greater the stabilization.
The pH and temperature stability of an aqueous liquid composition comprising SAE-CD, azelastine, and buffer were determined as follows.
Stock citrate solutions (sodium citrate (3 mM) and citric acid solution (3 mM); 500 mL each) were prepared. The citrate solutions were combined and titrated to prepare stock buffered solutions (at least 150 mL each) having a pH of 4, 5, or 6. A stock solution of azelastine hydrochloride (5 mg/mL) in water was prepared. Assay solutions comprising CAPTISOL, azelastine and buffer were prepared by mixing CAPTISOL (1.4 g) and stock solution of azelastine (7.5 mL) in stock buffered solution (QS to final volume of 75 mL for each different pH). Assay solutions comprising azelastine and buffer were prepared by mixing stock solution of azelastine (7.5 mL) and stock buffered solution (67.5 mL, or QS to final volume of 75 mL). […]

[3] = assay type: binding
From the text: (§1) The equilibrium binding constant of the corticosteroid can change when a second active agent is present in a composition of the invention. Since azelastine hydrochloride (AZ-HCl) has an approximately 10-fold higher binding constant for SBE-β-CD than does budesonide (BUD), the amount of SBE-β-CD present in an aqueous composition of the three needs to be sufficient to solubilize both drugs. Example 19 details a procedure for determination of the phase solubility of budesonide in the presence of varying amounts of azelastine. The results are depicted in FIGS. 11A (for SBE-β-CD) and 11B (for SBE-β-CD and SBE-γ-CD). […] FIG. 11B is a chart of the phase solubility of BUD as a function of SBE-β-CD or SBE-γ-CD concentration in solution using various different concentrations of AZ-HCl (1.00-2.75 mg.mL). […] Thus, increasing the amount of AZ-HCl in the solution decreases the overall solubility of BUD. […] Therefore, it is advantageous to prepare solution compositions of these combinations using SBE-γ-CD due to the efficiency of interaction so as to require less of one SAExCD versus another different SAEyCD to solubilize similar amounts of actives in the presence of each other.

[4] = assay type: binding; remark: listed apart in the source
Description: A composition of the invention can comprise SAE-CD, corticosteroid, aqueous liquid carrier, and an antihistamine. In some embodiments, the composition contains SAE-CD, budesonide, water (or aqueous buffer) and azelastine. Example 14 details the preparation of such a composition. Other solutions of azelastine in buffer with varying amounts of SAE-CD, in the absence of budesonide, were prepared and scanned by UV Spectrometer. The change in absorption as a function of SAE-CD concentration was plotted and used to determine the equilibrium binding constant of azelastine with SAE-CD, according to the Benesi-Hildebrand equation. […] The binding constant for budesonide under similar conditions was determined to be about 1000; therefore, azelastine will compete with budesonide, or another corticosteroid, for binding to SAE-CD. Accordingly, the amount of SAE-CD present can be increased to permit complete dissolution of both drugs.
as §1

Row | Steroid solubility (intrinsic) [1] [µM] | Equilibrium complex stability constant with SBE-γ-CD [3] [M⁻¹] | Equilibrium complex stability constant with SBE-β-CD [4] [M⁻¹] | Equilibrium complex stability constant with SBE-β-CD relative to SBE-γ-CD [4] | Equilibrium binding constant with CAPTISOL ([4]; pH 4.5) | SMILES | Stability in the presence of SAE-CD [2]
1 | 0 |  |  |  |  | C[C@@H]1C[C@H]2[C@@H]3CCC4=CC(=O)C=C[C@]4(C)[C@@]3(Cl)[C@@H](O)C[C@]2(C)[C@@]1(O)C(=O)CCl [Mometasone, mometasone] | 
2 |  | 2200 | ~10000 | about 5 times | approximately 10,000 | CN1CCCC(n2nc(Cc3ccc(Cl)cc3)c3ccccc3c2=O)CC1 (stereo not drawn) [azelastine, 4-[(4-chlorophenyl)methyl]-2-(1-methylazepan-4-yl)-phthalazin-1-one] | stabilized
